This assay addresses T1, human S1P1 receptor (Homo sapiens, UniProt P21453).
T1 construct: expressed in transfected cells; membranes used
The assay is described as follows: GTP γ35S binding assay for S1P1 activity. In kind it is biochemical. The settings on record: membranes of cells stably expressing the S1P1 receptor; agonist-induced GTP γ35S binding; read-out: EC50 at the S1P1 receptor from GTP γ35S. How it is done: Compounds were synthesized and tested for S1P1 activity using the GTP γ^35S binding assay. These compounds may be assessed for their ability to activate or block activation of the human S1P1 receptor in cells stably expressing the S1P1 receptor.
GTP γ^35S binding was measured in the medium containing (mM) HEPES 25, pH 7.4, MgCl2 10, NaCl 100, dithitothreitol 0.5, digitonin 0.003%, 0.2 nM GTP γ^35S, and 5 μg membrane protein in a volume of 150 μl. Test compounds were included in the concentration range from 0.08 to 5,000 nM unless indicated otherwise. Membranes were incubated with 100 μM 5′-adenylylimmidodiphosphate for 30 min, and subsequently with 10 μM GDP for 10 min on ice. Drug solutions and membrane were mixed, and then reactions were initiated by adding GTP γ^35S and continued for 30 min at 25° C. Reaction mixtures were filtered over Whatman GF/B filters under vacuum, and washed three times with 3 mL of ice-cold buffer (HEPES 25, pH7.4, MgCl2 10 and NaCl 100). Filters were dried and mixed with scintillant, and counted for ^35S activity using a β-counter. Agonist-induced GTP γ^35S binding was obtained by subtracting that in the absence of agonist. Binding data were analyzed using a non-linear regression method. In case of antagonist assay, the reaction mixture contained 10 nM […] in the presence of test antagonist at concentrations ranging from 0.08 to 5000 nM.

The term EC50 denotes the concentration giving half of the maximal effect.

T1 sequence (P21453 whole entry): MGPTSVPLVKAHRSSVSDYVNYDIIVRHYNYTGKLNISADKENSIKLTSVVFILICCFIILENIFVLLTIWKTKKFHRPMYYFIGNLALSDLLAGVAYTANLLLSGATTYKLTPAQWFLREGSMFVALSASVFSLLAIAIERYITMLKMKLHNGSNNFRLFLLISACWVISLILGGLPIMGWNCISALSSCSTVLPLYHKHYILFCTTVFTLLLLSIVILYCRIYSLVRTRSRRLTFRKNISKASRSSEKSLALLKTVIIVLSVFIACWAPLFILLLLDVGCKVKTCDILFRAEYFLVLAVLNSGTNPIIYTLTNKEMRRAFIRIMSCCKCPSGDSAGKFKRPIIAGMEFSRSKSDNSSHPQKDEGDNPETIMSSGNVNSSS

On to `CCCCCCc1ccc(-c2ccc(CN3CC(C(=O)O)C3)c3ncccc23)cc1` [Compound 1, 1-{[5-(4-hexylphenyl)quinolin-8-yl]methyl}azetidine-3-carboxylic acid], for which the EC50 came to 1.55 µM.

Source of the values: patent publication US8673892B2, “Phenyl bicyclic methyl azetidine derivatives as sphingosine-1 phosphate receptors modulators” (Allergan, Inc., priority 2011, dated 2014).
